Data on one compound can be found in patent publication US4182897A, “Amino- or guanidino-phenylpropionic acid derivatives” (Torii & Co., Ltd., priority 1977, dated 1980).

Bounds are passed on as bounds.

The subject of one series is Rat Masugi Nephritis. Description: Effect on rat Masugi nephritis (urinary protein). In kind it is in vivo, Sprague-Dawley rats. How it is done: (D) Effect on Masugi Nephritis: The effect of Compound No. 73 on Masugi nephritis was investigated according to the method of Shibata et al. [S. Shibata: Men-ekigaku, Arerugi-gaku Jikkenho (Immunology, Experimental Methods in Allergology), p. 664, (1971), Bunkodo, Tokyo]. Male sprague-Dawley rats weighing about 200 g were divided into normal group, diseased group and treated group, each consisting of 7 rats. For the purpose of inducing nephritis, 0.5 ml of anti- "rat nephritis" rabbit serum, which had been prepared according to the method of Shibata et al., was administered intravenously to rats of both diseased and treated groups. To the normal group was intravenously administered the same quantity of physiological saline. The test drug was administered intraperitoneally to rats of the treated group three times, namely two days prior to, one day prior to and on the day of administration of the antiserum. From the rats of each group, a 24 hours urine specimen was collected on the day preceding, and the 1st, 2nd, 5th, 8th and 13th days following the administration of the antiserum. Protein contents of the urine specimen were determined by the sulfosalicylic acid method.

In a further series the target is Human Plasmin (Homo sapiens, UniProt P00747). Briefly: Inhibitory effect on ester-hydrolyzing activity of human plasmin (TAMe substrate). Type of series: biochemical. The conditions noted are these: read-out: percent inhibition at 10^-3 M (plasmin). The protocol: (A) Determination of Enzyme-inhibitory Activity: The enzyme-inhibitory activities in vitro of the compounds of this invention were measured by the following procedure according to the method of M. Muramatsu et al. [[…]. Makino, Y. Hayashi and S. Fujii: J. […] (2) Inhibitory Effect on Ester-hydrolyzing Activity of Human Plasmin It was measured by using 0.1 ml of plasmin (generated by activation of plasminogen with streptokinase) and TAMe as substrate following the method described in (1).

The target of the next series is T1, Trypsin (Bos taurus, UniProt P00760).
T1 sequence (P00760 24-246): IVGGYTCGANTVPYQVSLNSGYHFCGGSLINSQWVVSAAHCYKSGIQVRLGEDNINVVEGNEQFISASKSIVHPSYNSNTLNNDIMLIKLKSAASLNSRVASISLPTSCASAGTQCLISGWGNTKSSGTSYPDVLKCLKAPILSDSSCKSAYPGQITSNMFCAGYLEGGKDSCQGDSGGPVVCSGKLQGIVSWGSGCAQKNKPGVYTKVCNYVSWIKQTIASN
Briefly: Inhibitory effect on ester-hydrolyzing activity of trypsin (TAMe substrate). In kind it is biochemical. The conditions noted are these: read-out: percent inhibition at 10^-3 M (trypsin). How it is done: (A) Determination of Enzyme-inhibitory Activity: The enzyme-inhibitory activities in vitro of the compounds of this invention were measured by the following procedure according to the method of M. Muramatsu et al. [[…]. Makino, Y. Hayashi and S. Fujii: J. […] Then, 10 μmoles of the substrate, TAMe (tosylarginine methyl ester), was added, and incubation was performed at 37° C. for 30 minutes. After the incubation, 1.5 ml of 2 M alkaline hydroxylamine was added and thoroughly mixed, and allowed to stand at room temperature for 15 minutes.

In series [1] the test system is complement-dependent hemolysis of sensitized erythrocytes. Briefly: Antihemolytic activity (prevention of complement-dependent hemolysis). In kind it is cell-based. The conditions noted are these: Erythrocyte, 10 min. How it is done: (C) Determination of Antihemolytic Activity: Preventions of the complement-dependent hemolysis by the compounds of this invention were measured according to the method of B. R. Baker et al. [J. Med. Chem., 12, 408-414 (1969)] by the following procedure: […] The mixture was incubated at 37° C. for 10 minutes. The reaction was stopped by adding 2.7 ml of an ice-cold citrate-saline solution, and the resulting mixture was centrifuged at 3000 rpm for 3 minutes. Absorbance of the supernatant was measured at 541 nm. As the standard, GVB^2+ (gelatin veronal buffer) was substituted for the sample solution and, as the control, GVB^2+ was substituted for the complement.

Another series addresses T2, Human Cl Esterase (Homo sapiens, UniProt P09871).
T2 sequence (P09871 438-688 limits assumed): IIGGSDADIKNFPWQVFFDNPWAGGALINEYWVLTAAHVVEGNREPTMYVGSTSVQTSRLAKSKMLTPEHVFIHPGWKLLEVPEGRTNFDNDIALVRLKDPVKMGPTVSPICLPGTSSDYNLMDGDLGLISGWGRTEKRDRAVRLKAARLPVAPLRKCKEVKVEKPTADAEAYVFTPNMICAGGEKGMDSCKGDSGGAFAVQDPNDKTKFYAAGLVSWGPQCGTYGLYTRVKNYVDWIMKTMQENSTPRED
T2 sequence (P09871 16-437 partner limits assumed): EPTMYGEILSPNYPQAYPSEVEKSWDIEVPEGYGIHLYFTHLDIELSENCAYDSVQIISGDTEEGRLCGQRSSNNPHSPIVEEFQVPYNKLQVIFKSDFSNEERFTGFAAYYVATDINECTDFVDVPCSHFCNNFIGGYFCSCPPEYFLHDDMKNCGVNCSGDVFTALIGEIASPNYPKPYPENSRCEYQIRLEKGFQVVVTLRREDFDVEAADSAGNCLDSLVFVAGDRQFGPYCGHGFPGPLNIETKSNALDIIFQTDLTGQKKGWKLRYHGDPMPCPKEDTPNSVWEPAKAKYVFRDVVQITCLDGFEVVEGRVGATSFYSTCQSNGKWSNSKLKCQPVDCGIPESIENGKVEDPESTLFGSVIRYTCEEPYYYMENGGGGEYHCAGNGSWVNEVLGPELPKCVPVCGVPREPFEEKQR
Briefly: Inhibitory effect on ester-hydrolyzing activity of human Cl esterase (ATEe substrate). The following applies: in vitro; acetyltyrosine ethyl ester hydrolysis; read-out: ID50 (Cl esterase). Type of series: biochemical.

The nature of series [2]: Acute toxicity by intraperitoneal administration in mice. The conditions noted are these: mouse, in vivo, ip, read-out: DL50 (acute toxicity).
The next series has as its target Human Plasma Kallikrein (Homo sapiens, UniProt P03952). Briefly: Inhibitory effect on ester-hydrolyzing activity of human plasma kallikrein (TAMe substrate). In kind it is biochemical. The conditions noted are these: read-out: percent inhibition at 10^-3 M (kallikrein). How it is done:
(A) Determination of Enzyme-inhibitory Activity: The enzyme-inhibitory activities in vitro of the compounds of this invention were measured by the following procedure according to the method of M. Muramatsu et al. [[…]. Makino, Y. Hayashi and S. Fujii: J.

For another series, the target named is Bovine Thrombin (Bos taurus, UniProt P00735). Description: Inhibitory effect on ester-hydrolyzing activity of bovine thrombin (TAMe substrate). Type of series: biochemical. The following applies: read-out: percent inhibition at 10^-3 M (thrombin). The protocol: (4) Inhibitory Effect on Ester-Hydrolyzing Activity of Bovine Thrombin
It was measured by using 0.4 ml of bovine thrombin […], 0.02 M sodium phosphate buffer solution (pH 7.4) and TAMe as substrate following the method described in (1).

Human Plasma Kallikrein, sequence (P03952 391-638 limits assumed): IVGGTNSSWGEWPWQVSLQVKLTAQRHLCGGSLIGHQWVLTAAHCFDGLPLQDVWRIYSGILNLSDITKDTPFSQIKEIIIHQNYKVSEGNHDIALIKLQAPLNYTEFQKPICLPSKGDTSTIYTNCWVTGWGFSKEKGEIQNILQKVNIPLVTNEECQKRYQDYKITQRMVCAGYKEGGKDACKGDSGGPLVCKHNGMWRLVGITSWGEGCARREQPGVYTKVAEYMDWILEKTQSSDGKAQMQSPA
Human Plasma Kallikrein, sequence (P03952 20-390 partner limits assumed): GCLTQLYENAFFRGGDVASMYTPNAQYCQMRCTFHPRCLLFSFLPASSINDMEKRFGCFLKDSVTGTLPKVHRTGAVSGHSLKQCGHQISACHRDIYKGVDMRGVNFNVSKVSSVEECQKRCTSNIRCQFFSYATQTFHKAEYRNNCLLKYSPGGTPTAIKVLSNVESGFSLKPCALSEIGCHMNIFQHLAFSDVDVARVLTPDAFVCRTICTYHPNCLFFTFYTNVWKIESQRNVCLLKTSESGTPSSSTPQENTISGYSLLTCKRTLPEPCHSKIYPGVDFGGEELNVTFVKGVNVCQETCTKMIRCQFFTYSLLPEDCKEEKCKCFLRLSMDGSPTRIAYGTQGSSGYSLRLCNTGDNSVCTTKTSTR
Human Plasmin, sequence (P00747 581-810 limits assumed): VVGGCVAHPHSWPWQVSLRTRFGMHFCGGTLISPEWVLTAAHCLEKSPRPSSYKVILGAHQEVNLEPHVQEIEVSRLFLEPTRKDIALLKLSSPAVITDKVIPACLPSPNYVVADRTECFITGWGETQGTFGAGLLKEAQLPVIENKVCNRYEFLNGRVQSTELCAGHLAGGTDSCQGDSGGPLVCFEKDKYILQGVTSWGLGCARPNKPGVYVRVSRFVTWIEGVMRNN
Human Plasmin, sequence (P00747 97-580 partner limits assumed): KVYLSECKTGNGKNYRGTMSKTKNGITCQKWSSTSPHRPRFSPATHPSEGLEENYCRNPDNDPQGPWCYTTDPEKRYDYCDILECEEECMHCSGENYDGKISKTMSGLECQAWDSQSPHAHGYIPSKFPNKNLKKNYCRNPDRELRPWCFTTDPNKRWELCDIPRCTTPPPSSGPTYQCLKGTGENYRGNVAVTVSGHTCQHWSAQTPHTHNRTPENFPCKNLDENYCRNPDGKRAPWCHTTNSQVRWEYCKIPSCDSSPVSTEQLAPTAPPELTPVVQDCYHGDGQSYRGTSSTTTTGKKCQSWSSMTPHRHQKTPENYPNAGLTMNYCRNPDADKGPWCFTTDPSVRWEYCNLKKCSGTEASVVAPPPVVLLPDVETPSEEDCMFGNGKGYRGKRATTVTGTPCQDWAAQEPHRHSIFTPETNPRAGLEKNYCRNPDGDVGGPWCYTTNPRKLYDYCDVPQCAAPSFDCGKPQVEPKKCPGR
Method for Human Cl Esterase: It was measured by using 0.1 ml of Cl esterase, 0.1 ml of 0.02 M sodium phosphate buffer solution (pH 7.4) and 10 μmoles of ATEe (acetyltyrosine ethyl ester) as substrate following the method described in (1).

With `CCC(Cc1ccc(NC(=N)N)cc1)C(=O)Oc1ccccc1` (stereo not drawn) [Compound No. 73, phenyl α-ethylβ-(p-guanidinophenyl)-propionate], the Protein in urine with Rat Masugi Nephritis (12.5 mg/kg i.p. x3, day 1 after antiserum) is 34.0 mg/day; in the series with Rat Masugi Nephritis (12.5 mg/kg i.p. x3, day 2 after antiserum) it was 42.5 mg/day; with Rat Masugi Nephritis (12.5 mg/kg i.p. x3, day 5 after antiserum), 45.6 mg/day; with Rat Masugi Nephritis (12.5 mg/kg i.p. x3, day 8 after antiserum), 76.3 mg/day; in the series with Rat Masugi Nephritis (12.5 mg/kg i.p. x3, day 13 after antiserum), 115.5 mg/day; in the series on Rat Masugi Nephritis (12.5 mg/kg i.p. x3, day -1), 6.0 mg/day. For the same compound, the Protein in urine in the series with Rat Masugi Nephritis (25.0 mg/kg i.p. x3, day 1 after antiserum) turned out to be 41.1 mg/day; with Rat Masugi Nephritis (25.0 mg/kg i.p. x3, day 2 after antiserum), 33.9 mg/day; with Rat Masugi Nephritis (25.0 mg/kg i.p. x3, day 5 after antiserum) it was 39.4 mg/day; in the series on Rat Masugi Nephritis (25.0 mg/kg i.p. x3, day 8 after antiserum) it was 63.3 mg/day; in the series on Rat Masugi Nephritis (25.0 mg/kg i.p. x3, day 13 after antiserum), 71.5 mg/day; with Rat Masugi Nephritis (25.0 mg/kg i.p. x3, day -1), 4.2 mg/day. For the same compound, the inhibition at 1000 µM at Human Plasmin is less than 10%; at Trypsin, 43.9%; in series [1] (10^-3 M), 69.1%; on Human Plasma Kallikrein, 31.5%; on Bovine Thrombin, less than 10%. In series [1] (10^-4 M), the inhibition at 100 µM turned out to be 30%. Also, the IC50 at Human Cl Esterase worked out at 310 µM. The LD50 in series [2] was 129 mg/kg.
